Experimental data published in paper PMC2034084, “Pharmacokinetics and binding of the bioreductive probe for hypoxia, NITP: effect of route of administration” (British Journal of Cancer, 1995).
“And” between values parts separate entries of the source, which are not always exact repeats. Identical values can stand only once.

What was measured:
[1] = Plasma and tumour pharmacokinetics of NITP by HPLC after different routes and vehicles; type: in vivo, CBA mice; conditions: for AUC s.e.m. Tumour: CaNT tumour
Source text: Britsh Journal of Cancer (1995) 72, 1462-1468 ft (32) 1995 Stockton Press All rights reserved 0007-0920/95 $12.00 Pharmacokinetics and binding of the bioreductive probe for hypoxia, NITP: effect of route of administration RJ Hodgkiss, MRL Stratford, MF Dennis and SA Hill Gray Laboratory Cancer Research Trust, P.O. Box 100, Mount Vernon Hospital, Northwood, Middlesex HA6 2JR, UK. Summary The novel compound 7-[4'-(2-nitroimidazol-l-yl)-butyl]-theophylline (NITP) can be used as an immunologically detectable probe for hypoxic cells. Because of the limited water solubility of NITP, it has been administered dissolved in peanut oil with 10% dimethylsulphoxide (DMSO). A new aqueous formulation has been devised, based on a 50% solution of a modified P-cyclodextrin (Molecusol HPB), which increases the water solubility of NITP 10-fold. The pharmacokinetics of NITP in plasma and tumours have been compared following oral and intraperitoneal (i.p.) administration of the NITP in Molecusol, i.p. administration of NITP dissolved in peanut oil + 10% DMSO and injection of a near-saturated aqueous solution of the drug intravenously via the tail vein or i.p. or directly into the tumours. Binding of the marker to hypoxic cells within tumours was also measured after the different routes of administration. The Molecusol vehicle was unexpectedly toxic when administered i.p., but there was no toxicity from NITP dissolved in Molecusol when administered orally. […] Binding of NITP within tumours has also been observed following direct injection of the drug, with minimal whole-body exposure to NITP. […] In particular, bioreductive drugs are specifically activated in hypoxic cells and can target those cells that are resistant to radiotherapy (for review see Stratford, 1992). Numerous methods have been proposed for measuring tumour hypoxia (for review see Hodgkiss and Wardman, 1992), in the hope that this would allow treatment to be optimised for individual patients on the basis of the oxygen status of their tumours. In particular, the hypoxia-specific binding of isotopically labelled 2-nitroimidazoles has been used to identify hypoxic cells in tumours, (e.g. Chapman et al., 1982; Franko and Chapman, 1982; Garrecht and Chap- man, 1983; Raleigh et al., 1985; Rasey et al., 1985; Urtasun et al., 1986). Immunological detection of 2-nitroimidazoles has been described (Raleigh et al., 1987; Hodgkiss et al., 1991; Lord et al., 1993) and avoids the administration of radioactive labels, which would be particularly desirable for clinical measurement of tumour hypoxia. The novel compound 7-[4'-(2-nitroimidazol-1-yl)-butyl]- theophylline (NITP), has been described as an immuno- logically detectable bioreductive probe for hypoxic cells (Hodgkiss et al., 1991), and appears to offer promise as a method of quantifying tumour hypoxia in vivo. However, the water solubility of NITP is only c. 2 x 10^-3 M at 20'C and its administration in vivo, dissolved in water or saline, would require an inconveniently large volume of drug solution to be given to achieve an adequate dose level of c. 0.45 lsmol g-'. To circumvent this problem, NITP has been administered in vivo as a solution in peanut oil + 10% DMSO (Hodgkiss et al., 1991). While this formulation has given satisfactory results in the tumour models used, it is clearly unsuitable for clinical administration, and an aqueous preparation of the drug would be preferable. ,-Cyclodextrin consists of seven glucose units joined into a ring, taking up the shape of a three-dimensional torus with a hydrophobic cavity. 'Guest' molecules of a suitable size can fit into the central cavity, and the inclusion complex thus formed can increase the aqueous solubility of lipophilic com- pounds (Szejtli, 1982). […] This paper describes the use of a modified 2-hydroxy-propyl-p-cyclodextrin (Mole- cusol HPB) as an agent for preparing aqueous solutions of NITP. […]

[2] = Solubility of NITP in water and in Molecusol HPB solution; type: physicochemical; conditions: Molecusol HPB solution vs water
Source text: (§1) Britsh Journal of Cancer (1995) 72, 1462-1468 ft (32) 1995 Stockton Press All rights reserved 0007-0920/95 $12.00 Pharmacokinetics and binding of the bioreductive probe for hypoxia, NITP: effect of route of administration RJ Hodgkiss, MRL Stratford, MF Dennis and SA Hill Gray Laboratory Cancer Research Trust, P.O. Box 100, Mount Vernon Hospital, Northwood, Middlesex HA6 2JR, UK. Summary The novel compound 7-[4'-(2-nitroimidazol-l-yl)-butyl]-theophylline (NITP) can be used as an immunologically detectable probe for hypoxic cells. Because of the limited water solubility of NITP, it has been administered dissolved in peanut oil with 10% dimethylsulphoxide (DMSO). A new aqueous formulation has been devised, based on a 50% solution of a modified P-cyclodextrin (Molecusol HPB), which increases the water solubility of NITP 10-fold. […] Binding of the marker to hypoxic cells within tumours was also measured after the different routes of administration. […] The novel compound 7-[4'-(2-nitroimidazol-1-yl)-butyl]- theophylline (NITP), has been described as an immuno- logically detectable bioreductive probe for hypoxic cells (Hodgkiss et al., 1991), and appears to offer promise as a method of quantifying tumour hypoxia in vivo. […]

CaNT tumours = assay: Bound adducts of NITP in cells from tumours, fluorescent immunochemical staining and flow cytometry; type: in vivo, CBA mice; conditions: for proportion of total cells in the region of bound NITP metabolites: control region 1%
Source text: Britsh Journal of Cancer (1995) 72, 1462-1468 ft (32) 1995 Stockton Press All rights reserved 0007-0920/95 $12.00 Pharmacokinetics and binding of the bioreductive probe for hypoxia, NITP: effect of route of administration RJ Hodgkiss, MRL Stratford, MF Dennis and SA Hill Gray Laboratory Cancer Research Trust, P.O. Box 100, Mount Vernon Hospital, Northwood, Middlesex HA6 2JR, UK. Summary The novel compound 7-[4'-(2-nitroimidazol-l-yl)-butyl]-theophylline (NITP) can be used as an immunologically detectable probe for hypoxic cells. Because of the limited water solubility of NITP, it has been administered dissolved in peanut oil with 10% dimethylsulphoxide (DMSO). A new aqueous formulation has been devised, based on a 50% solution of a modified P-cyclodextrin (Molecusol HPB), which increases the water solubility of NITP 10-fold. The pharmacokinetics of NITP in plasma and tumours have been compared following oral and intraperitoneal (i.p.) administration of the NITP in Molecusol, i.p. administration of NITP dissolved in peanut oil + 10% DMSO and injection of a near-saturated aqueous solution of the drug intravenously via the tail vein or i.p. or directly into the tumours. Binding of the marker to hypoxic cells within tumours was also measured after the different routes of administration. The Molecusol vehicle was unexpectedly toxic when administered i.p., but there was no toxicity from NITP dissolved in Molecusol when administered orally. […] Binding of NITP within tumours has also been observed following direct injection of the drug, with minimal whole-body exposure to NITP. […] In particular, bioreductive drugs are specifically activated in hypoxic cells and can target those cells that are resistant to radiotherapy (for review see Stratford, 1992). Numerous methods have been proposed for measuring tumour hypoxia (for review see Hodgkiss and Wardman, 1992), in the hope that this would allow treatment to be optimised for individual patients on the basis of the oxygen status of their tumours. In particular, the hypoxia-specific binding of isotopically labelled 2-nitroimidazoles has been used to identify hypoxic cells in tumours, (e.g. Chapman et al., 1982; Franko and Chapman, 1982; Garrecht and Chap- man, 1983; Raleigh et al., 1985; Rasey et al., 1985; Urtasun et al., 1986). […] The novel compound 7-[4'-(2-nitroimidazol-1-yl)-butyl]- theophylline (NITP), has been described as an immuno- logically detectable bioreductive probe for hypoxic cells (Hodgkiss et al., 1991), and appears to offer promise as a method of quantifying tumour hypoxia in vivo. […]

[3] = Toxicity and tolerability after oral or i.p. administration; type: in vivo, mice
Source text: as §1

[4] = 0.45 umol g-1 i.p. in peanut oil + 10% DMSO
[5] = 0.45 and 0.09 umol g-1 oral in Molecusol
[6] = Molecusol HPB i.p. 0.09 umol g-1
[7] = Molecusol HPB i.p. 0.45 umol g-1
[8] = Molecusol HPB oral 0.09 umol g-1
[9] = Molecusol HPB oral 0.45 umol g-1, pooled data for three experiments
[10] = Molecusol HPB oral (footnote a), dose printed 0
[11] = Peanut oil/DMSO i.p. 0.45 umol g-1
[12] = plasma, Molecusol HPB i.p. 0.09 umol g-1
[13] = plasma, Molecusol HPB i.p. 0.45 umol g-1
[14] = plasma, Molecusol HPB oral 0.09 umol g-1
[15] = plasma, Molecusol HPB oral 0.45 umol g-1, pooled data for three experiments
[16] = plasma, Molecusol HPB oral (footnote a), dose printed 0
[17] = plasma, Peanut oil/DMSO i.p. 0.45 umol g-1
[18] = plasma, Saline i.p. 0.015 umol g-1
[19] = plasma, Saline i.t. 0.006 umol g-1
[20] = saline i.v. 0.015 umol g-1, non-linear regression, biphasic curve

Compound: Cn1c(=O)c2c(ncn2CCCCn2ccnc2[N+](=O)[O-])n(C)c1=O [NITP, 7-[4'-(2-nitroimidazol-l-yl)-butyl]-theophylline]
- peak plasma concentration relative to that predicted from a uniform distribution of the compound administered [1, 4]: about 20%
- time plasma remains at plateau level [1, 4]: about 50 min
- time to reach plasma plateau level [1, 4]: 10 to 15 min
- peak plasma level relative to that expected from a uniform distribution of the drug [1, 5]: about 20%
- plasma clearance half-life [1, 5]: 22 min
- AUC s.e.m. Tumour [1, 6]: 2.01 M min (x 103)
- AUC s.e.m. Tumour [1, 7]: 21.2 M min (x 103)
- AUC s.e.m. Tumour [1, 8]: 0.310 M min (x 103)
- AUC s.e.m. Tumour [1, 9]: 4.09 M min (x 103)
- AUC s.e.m. Tumour [1, 10]: 4.62 M min (x 103)
- AUC s.e.m. Tumour [1, 11]: 6.72 M min (x 103)
- AUC s.e.m. Tumour ([1]; Saline i.t. 0.006 umol g-1): 2.64 M min (x 103)
- AUC s.e.m. Plasma [1, 6]: 2.54 M min (x 103)
- AUC s.e.m. Plasma [1, 7]: 27.4 M min (x 103)
- AUC s.e.m. Plasma [1, 8]: 0.543 M min (x 103)
- AUC s.e.m. Plasma [1, 9]: 5.41 M min (x 103)
- AUC s.e.m. Plasma [1, 10]: 5.73 M min (x 103)
- AUC s.e.m. Plasma [1, 11]: 9.26 M min (x 103)
- AUC s.e.m. Plasma ([1]; Saline i.p. 0.015 umol g-1): 0.100 M min (x 103)
- AUC s.e.m. Plasma ([1]; Saline i.t. 0.006 umol g-1): 0.054 M min (x 103)
- AUC s.e.m. Plasma ([1]; Saline i.v. 0.005 umol g-1): 0.041 M min (x 103)
- AUC s.e.m. Plasma ([1]; Saline i.v. 0.015 umol g-1): 0.177 M min (x 103)
- Half life s.e.m. [1, 12]: 19.7 min
- Peak concentration + s.e.m. [1, 12]: 58.2 µM
- Half life s.e.m. [1, 13]: 36.6 min
- Peak concentration + s.e.m. [1, 13]: 401 µM
- Half life s.e.m. [1, 14]: 22.4 min
- Peak concentration + s.e.m. [1, 14]: 16.2 µM
- Half life s.e.m. [1, 15]: 26.5 min
- Peak concentration + s.e.m. [1, 15]: 104 µM
- Half life s.e.m. [1, 16]: 22.3 min
- Peak concentration + s.e.m. [1, 16]: 127 µM
- Half life s.e.m. [1, 17]: 33.1 min
- Peak concentration + s.e.m. [1, 17]: 96.3 µM
- Half life s.e.m. [1, 18]: 7.84 min
- Peak concentration + s.e.m. [1, 18]: 6.78 µM
- Half life s.e.m. [1, 19]: 9.79 min
- Peak concentration + s.e.m. [1, 19]: 3.68 µM
- Half life s.e.m. ([1]; plasma, Saline i.v. 0.005 umol g-1): 8.86 min
- Peak concentration ([1]; plasma, Saline i.v. 0.005 umol g-1, 1 min, n = 1): 4.06 µM
- Half life s.e.m. ([1]; plasma, Saline i.v. 0.015 umol g-1, linear fit to terminal elimination phase): 9.64 min
- volume of distribution ([1]; saline i.v. 0.015 umol g-1, non-linear regression data): 0.63 mL/g
- distribution phase half-life [1, 20]: 1.7 min
- elimination half-life [1, 20]: 9.2 min
- factor by which plasma concentrations lie below the tumour concentration ([1]; single i.t. injection of 0.1 ml 2 x 10^-3 M NITP): ≥ 20
- improvement in the solubility of NITP over that in water alone [2]: 10 fold and ~ 10 fold
- binding of NITP in tumours (CaNT tumours; direct injection of NITP saline solution into tumours): substantial binding
- binding of NITP in tumours (CaNT tumours; i.v. injection of 2 x 10^-3 M solution in saline): little binding
- proportion of total cells in the region of bound NITP metabolites (CaNT tumours; tumour excised 30 min after oral 0.09 umol g-1 NITP in Molecusol): 17%
- proportion of total cells in the region of bound NITP metabolites (CaNT tumours; tumour excised 90 min after oral 0.45 umol g-1 NITP in Molecusol): 19%
- toxicity ([3]; NITP in Molecusol i.p., dose reduced by a factor of 5 (0.09 umol g-1)): no toxicity
- tolerability ([3]; oral, up to 0.9 umol g-1 NITP in Molecusol (20 umol g-1)): well tolerated with no obvious toxicity
